Among the data in PubChem BioAssay (NCI) are GI50 and TGI values, retold here.

Structures are written as SMILES.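 Protocol summary: plate cells (96-well), add compound at 5 concentrations, incubate 48 h, interpolate endpoints linearly. GI50 marks 50% less growth. Definition used: TGI = concentration required for complete inhibition of growth.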 Where only a bound is given, the exact number is not on record here.

Holding throughout (assay): inhibition of tumour cell growth, NCI panel, 48 h
The test system of test [1] is LOX IMVI melanoma.
Test [2] concerns NCI-H522 lung.
The test system of test [3] is M14 melanoma.
The test system of test [4] is NCI-H226 lung.
Test [5] has as its system SN12C renal.
The subject of test [6] is SNB-19 CNS.
Test [7] has as its system HCT-116 colon.
Test [8] relates to T-47D breast.
Test [9] has as its system U251 CNS.
Test [10] relates to HOP-92 NSCLC.

As to `O=C1NC(=O)C(=C/C=C/c2ccccc2)C(=O)N1`, the GI50 in test [1] is 1.55 µM; in test [2], 2.36 µM; in test [3], 2.04 µM; in test [4] it was 2.81 µM; in [5], 3.27 µM; in test [6] it was 5.14 µM. Further, the GI50 was 1.71 µM in test [7], 11.6 µM in [8] and 2.5 µM in [9]. Moreover, the TGI in [1] stood at 3.3 µM; in test [2], 7.15 µM; in [3], 4.73 µM; in test [4], 7.25 µM; in test [5], 19.5 µM; in [6] it was 24.7 µM. For the same compound, the TGI amounted to 3.28 µM in test [7], 53 µM in [8] and 10.3 µM in test [9].
As for `C=C(C)[C@@H]1CC[C@]2(C(=O)O)CC[C@]3(C)[C@H](CC[C@@H]4[C@@]5(C)C[C@@H](CC#Cc6ccc(C(F)(F)F)cc6)[C@H](O)C(C)(C)[C@@H]5CC[C@]43C)[C@@H]12`, the GI50 in test [4] was 2.91 µM; in [6], 3.29 µM; in test [7], 2.34 µM; in test [8] it was 4.75 µM; in [9], 1.98 µM; in test [10], 3.09 µM. The TGI in test [4] was > 100 µM; in test [6], > 100 µM; in [7], > 100 µM; in [8], > 100 µM; in test [9], 4.75 µM; in test [10] it was 13.8 µM.
Take `COc1ccc(C(=O)c2cc(OC)c(OC)c(OC)c2)cc1/C=C/C(=O)c1ccc(OC)c(OC)c1`: the GI50 is 0.559 µM in test [1]; 2.79 µM in test [3]; 1.65 µM in test [5]; 2.7 µM in test [6]; 0.416 µM in test [7]; 2.76 µM in test [8]. In addition, in test [10], the GI50 was 1.69 µM. The TGI is 4.75 µM in test [1]; > 100 µM in test [3]; > 100 µM in test [5]; > 100 µM in test [6]; > 100 µM in test [7]; > 100 µM in test [8]. The compound also gave a TGI in test [10] of 58 µM.
Turning to `Cc1ccc(S(=O)(=O)N2CCSCCN(S(=O)(=O)c3ccc(C)cc3)CCN(S(=O)(=O)c3ccc(C)cc3)CC2)cc1`, the TGI in test [3], in test [4], in [5], in test [6], in test [7] and in test [8] was > 100 µM each time. Also, the figures for the TGI in [9] and in test [10] were 90.1 µM and 9.06 µM, respectively.
Regarding `O=C1c2nsnc2C(=O)c2c(F)c(F)c(F)c(F)c21`, the GI50 in [1] was 0.494 µM; in test [3] it was 0.249 µM; in [4], 1.93 µM; in test [5], 0.998 µM; in test [6] it was 1.2 µM; in test [7], 0.426 µM. In addition, the GI50 was 0.473 µM in [8] and 1.38 µM in test [9]. In addition, the TGI in test [1] came to 1.83 µM; in test [3], 0.629 µM; in test [4], 4.58 µM; in test [5] it was 2.28 µM; in [6], 2.56 µM; in test [7], 1.36 µM. Also, the TGI in [8] amounted to 2.37 µM; in test [9], 2.94 µM.
Take `CC1COc2c(N3CCN(C)CC3)c(F)cc3c(=O)c(C(=O)O)cn1c23` (centres undefined): the GI50 in [1] was > 100 µM; in test [2] it was > 100 µM; in test [3] it was > 100 µM; in test [4], 93.1 µM; in test [5] it was > 100 µM; in [6] it was > 100 µM. Besides, the GI50 was > 100 µM in test [7], > 100 µM in test [9] and 0.478 µM in [10]. The TGI in test [1], in test [2], in test [3], in [4], in test [5] and in [6] was > 100 µM in each case. Besides, the TGI in [7], in test [9] and in [10] was > 100 µM throughout.
On to `Cc1ccc(-c2cc3c(SCC(=O)Nc4cc(C(F)(F)F)ccc4Cl)nccn3n2)cc1`, for which the GI50 in test [1] is > 100 µM; in test [3], > 100 µM; in test [4], > 100 µM; in test [5], > 100 µM; in test [6] it was 30.9 µM; in [7] it was 5.01 µM. Further, the GI50 was 23.6 µM in [8], 3.4 µM in test [9] and 14.1 µM in [10]. Also, the TGI in [1], in test [3], in test [4], in [5], in test [6] and in test [7] was > 100 µM in each case. The TGI in [8], in [9] and in [10] was > 100 µM in each case.
In the case of `CNCc1cc(OC)ccc1-c1ccc(OC)c(OC)c1OC`, the TGI in [1], in test [2], in [3], in [4], in test [5] and in test [6] was > 100 µM throughout. The TGI in test [7], in [9] and in test [10] was > 100 µM throughout.
Take `COc1cc2nc(SCC(=O)Nc3cc(OC)c(OC)c(OC)c3)n(Cc3ccccc3)c(=O)c2cc1OC`: the GI50 is 4.71 µM in [1]; 3.65 µM in test [2]; 16.1 µM in test [3]; 4.7 µM in [5]; 2.92 µM in test [6]; 6.74 µM in test [7]. The GI50 in [8] is 6.57 µM; in [9], 3.18 µM. The TGI in test [1] is > 100 µM; in test [2] it was 32.4 µM; in [3], > 100 µM; in test [5], > 100 µM; in [6], 18.1 µM; in [7], 78.9 µM. Besides, the TGI in test [8] is > 100 µM; in test [9], 11.2 µM.
